In ChEMBL document CHEMBL2401614, “Synthesis of artemisinin dimers using the Ugi reaction and their in vitro efficacy on breast cancer cells” (Bioorg Med Chem Lett, 2013):
pIC50: −log10 of the molar value.

Experiments:
[1] = test system: MCF-10A; assay: Selectivity index, ratio of IC50 for human MCF10A cells to IC50 for human BT474 cells; type: functional
[2] = test system: MCF-10A; assay: Cytotoxicity against human MCF10A cells after 48 hrs by MTT assay; type: cell-based
[3] = test system: MCF-10A; assay: Selectivity index, ratio of IC50 for human MCF10A cells to IC50 for human MDA-MB-231 cells; type: functional
[4] = test system: BT-474; assay: Cytotoxicity against human BT474 cells after 48 hrs by MTT assay; type: functional, cell-based; conditions: BT-474, 48 h
[5] = test system: MDA-MB-231; assay: Cytotoxicity against human MDA-MB-231 cells after 48 hrs by MTT assay; type: functional, cell-based; conditions: MDA-MB-231, 48 h
[6] = Cytotoxicity against human NCI60 cells relative to artesunate; type: functional
[7] = test system: BT-474; assay: Ratio of artemisinin dimer succinate IC50 to compound IC50 for human BT474 cells; type: functional

| Compound | Ratio IC50 [1] | pIC50 [2] | Ratio IC50 [3] | pIC50 [4] | pIC50 [5] | fold change (FC) [6] | Ratio IC50 [7] |
| --- | --- | --- | --- | --- | --- | --- | --- |
| COC(=O)CNC(=O)C(CC[C@H]1O[C@@H]2O[C@@]3(C)CC[C@H]4[C@H](C)CC[C@@H]([C@H]1C)[C@@]24OO3)N(CCC[C@H]1O[C@@H]2O[C@@]3(C)CC[C@H]4[C@H](C)CC[C@@H]([C@H]1C)[C@@]24OO3)C(=O)c1ccccc1 (mixture of isomers) | 6.3 | 5.30 | 0.45 | 6.10 | 4.96 |  |  |
| COC(=O)CNC(=O)C(CC[C@H]1O[C@@H]2O[C@@]3(C)CC[C@H]4[C@H](C)CC[C@@H]([C@H]1C)[C@@]24OO3)N(CCC[C@H]1O[C@@H]2O[C@@]3(C)CC[C@H]4[C@H](C)CC[C@@H]([C@H]1C)[C@@]24OO3)C(=O)c1ccc(N(C)C)cc1 (mixture of isomers) | 17 | 4.82 | 1.3 | 6.06 | 4.92 |  |  |
| C[C@H]1[C@@H](CC(COC(=O)CCC(=O)O)C[C@H]2O[C@@H]3O[C@@]4(C)CC[C@H]5[C@H](C)CC[C@@H]([C@H]2C)[C@@]35OO4)O[C@@H]2O[C@@]3(C)CC[C@H]4[C@H](C)CC[C@@H]1[C@@]24OO3 (stereo not given in full) | 210 | 4.68 | 88 | 7.00 | 6.62 | <=500 |  |
| COC(=O)CNC(=O)C(CC[C@H]1O[C@@H]2O[C@@]3(C)CC[C@H]4[C@H](C)CC[C@@H]([C@H]1C)[C@@]24OO3)N(CCC[C@H]1O[C@@H]2O[C@@]3(C)CC[C@H]4[C@H](C)CC[C@@H]([C@H]1C)[C@@]24OO3)C(=O)C(F)(F)F (mixture of isomers) | 0.7 | 5.34 | 0.24 | 5.18 | 4.72 |  |  |
| COC(=O)CNC(=O)C(CC[C@H]1O[C@@H]2O[C@@]3(C)CC[C@H]4[C@H](C)CC[C@@H]([C@H]1C)[C@@]24OO3)N(CCC[C@H]1O[C@@H]2O[C@@]3(C)CC[C@H]4[C@H](C)CC[C@@H]([C@H]1C)[C@@]24OO3)C(=O)c1cccc(OC)c1OC (mixture of isomers) | 0.98 | 5.24 | 0.48 | 5.24 | 4.92 |  |  |
| COC(=O)CNC(=O)C(CC[C@H]1O[C@@H]2O[C@@]3(C)CC[C@H]4[C@H](C)CC[C@@H]([C@H]1C)[C@@]24OO3)N(CCC[C@H]1O[C@@H]2O[C@@]3(C)CC[C@H]4[C@H](C)CC[C@@H]([C@H]1C)[C@@]24OO3)c1ccc([N+](=O)[O-])cc1 (mixture of isomers) | 490 | 4.33 | 39 | 7.02 | 5.92 |  |  |
| COC(=O)CNC(=O)C(CC[C@H]1O[C@@H]2O[C@@]3(C)CC[C@H]4[C@H](C)CC[C@@H]([C@H]1C)[C@@]24OO3)N(CCC[C@H]1O[C@@H]2O[C@@]3(C)CC[C@H]4[C@H](C)CC[C@@H]([C@H]1C)[C@@]24OO3)C(=O)c1cnccn1 (mixture of isomers) | 15 | 4.60 | 0.96 | 5.77 | 4.59 |  |  |
| C[C@H]1[C@@H](CCCN(c2c(F)c(F)cc(F)c2F)C(CC[C@H]2O[C@@H]3O[C@@]4(C)CC[C@H]5[C@H](C)CC[C@@H]([C@H]2C)[C@@]35OO4)C(=O)NCC(=O)O)O[C@@H]2O[C@@]3(C)CC[C@H]4[C@H](C)CC[C@@H]1[C@@]24OO3 (stereo not given in full) | 8200 | 4.01 | 43 | 7.92 | 5.64 |  | 8 |
| C[C@H]1[C@H](OC(=O)CCC(=O)O)O[C@@H]2O[C@@]3(C)CC[C@H]4[C@H](C)CC[C@@H]1[C@@]24OO3 [ARTESUNATE] | 2.7 | 4.68 | 0.46 | 5.11 | 4.34 |  |  |
| COC(=O)CNC(=O)C(CC[C@H]1O[C@@H]2O[C@@]3(C)CC[C@H]4[C@H](C)CC[C@@H]([C@H]1C)[C@@]24OO3)N(C(=O)c1ccccc1)C(C)C (stereo not given in full) |  | < 4.00 |  | < 4.00 | < 4.00 |  |  |
